The values below come from patent US5942532A, “2-substituted phenyl-benzimidazole antibacterial agents” (Ortho Pharmaceutical Corporation, priority 1997, dated 1999).

In this experiment the target is T1, Kinase A and Spo0F (Bacillus subtilis, UniProt P16497).
T1 construct: made in house; host or cells: recombinant E. coli
T1 sequence (P16497 1-606): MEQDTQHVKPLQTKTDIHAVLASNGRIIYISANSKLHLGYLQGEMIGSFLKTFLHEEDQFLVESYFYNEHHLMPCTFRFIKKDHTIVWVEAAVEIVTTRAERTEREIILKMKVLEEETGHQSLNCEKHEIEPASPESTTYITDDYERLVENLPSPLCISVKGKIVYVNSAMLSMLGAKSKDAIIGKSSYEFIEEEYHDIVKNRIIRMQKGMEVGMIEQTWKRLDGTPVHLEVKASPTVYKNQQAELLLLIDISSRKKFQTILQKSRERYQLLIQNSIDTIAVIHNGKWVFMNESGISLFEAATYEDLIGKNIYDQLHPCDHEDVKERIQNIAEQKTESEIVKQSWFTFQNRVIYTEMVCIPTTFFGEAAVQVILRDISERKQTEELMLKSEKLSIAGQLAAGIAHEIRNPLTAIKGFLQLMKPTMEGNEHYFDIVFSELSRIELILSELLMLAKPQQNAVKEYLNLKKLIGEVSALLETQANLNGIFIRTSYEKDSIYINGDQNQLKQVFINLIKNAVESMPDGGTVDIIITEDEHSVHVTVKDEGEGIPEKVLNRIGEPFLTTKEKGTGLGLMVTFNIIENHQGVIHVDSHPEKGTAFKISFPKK
As to the kind of experiment: Autophosphorylation of Kinase A and Transphosphorylation of Spo0F Assay (HPK in vitro assay). The class given is biochemical. Here is the method: Autophosphorylation of Kinase A and Transphosphorylation of Spo0F Assay
To study the effect of the compounds of the present invention on the signal transduction process in bacteria, the inhibiting effect of the compounds on the sporulation operon proteins Kinase A and Spo0F was examined. Specifically, the inhibition of autophosphorylation of Kinase A and the transphosphorylation of Spo0F was determined in the following assays. The Spo0F response regulator is the primary substrate for phosphorylation by the protein kinase, Kin A, involved in the sporulation process in bacteria. See D. Burbulys, K. A. Trach, J. A. Hoch, Cell, 64, 545-552 (1991). Spo0F and KinA were prepared from recombinant E. coli overexpressing the proteins (J. Cavanagh et al, Amino Acids, 6, 131-140 (1994) and references therein).
The following stock reagents were either prepared and used promptly or stored at the indicated temperature:
8×Salts: 2 M KCl (5 mL), 1 M MgCl2 (800 mL), 1 M CaCl2 (100 mL), 10 mg/mL phenylmethylsulfonyl fluoride (200 mL), 1 M dithioreitol (50 mL), 0.25 M Na2 EDTA (32 mL) and H2 O 3.82 mL (-20° C.)
5×Loading Dye: 0.5M TRIS-HCl, pH 6.8 (7.5 mL), 10% SDS (2 mL) 0.1% bromophenol blue (0.5 mL), 100% glycerol (3 mL) and 12.5 M 2-mercaptoethanol (0.3 mL)
1-1.3 mg/mL KinA: 15 mM TRIS-HCl, pH 8.0, 6 mM KCl; 4 mM 2-mercaptoethanol;40% glycerol (-20° C.)
1 mg/mL Spo0F: 17.5 mM TRIS-HCl, pH 8.0; 0.7 mM KCl; 0.7 mM MgCl2; 0.7 mM CaCl2; 5 mM 2-mercaptoethanol; 30% glycerol (-20° C.)
5% Stacking Gel: 40% 29:1 acrylamide:bis acrylamide (1.25 mL), 0.5 M TRIS-HCl, pH 6.8 (2.5 mL), 10% SDS (0.1 mL), D-H2 O (6.15 mL) 10% ammonium persulfate (100 mL) and TEMED (25 mL)
SDS Running Buffer: TRIS-BASE (3.02 g), glycine (14.4 g), SDS (1 g), D-H2 O (to 1 L)
The reaction mixture was prepared from 8×Salts (87 μL), 1M TRIS, pH 8 (118 μL), 50% glycerol (63 μL), Spo0F (14.1 μL) and KinA (7.0 μL). Microcentrifuge tubes were charged with the reaction mixture (18.5 μL) and a 1.0 mM solution of the test compound in 5% DMSO (18.5 μL), and incubated for 15 min on ice. 100 mM ATP solution (3.0 μl, containing 625 μCi [^32 P]ATP) was added, and the mixture left for 10 minutes at room temperature. The reaction was quenched with 5× loading dye (10 μL per tube) and the samples were loaded on a prepared 5% Stacking Gel, or stored on dry ice until ready for use. The prepared wells were filled with SDS Running Buffer, samples were loaded into the wells, and 80 volts were applied to the gel until the dye front reached the bottom of the stacking gel. The voltage was then increased to 250 volts until electrophoresis was complete. Radioactive bands in the gel corresponding to phosphorylated KinA and Spo0F were imaged and quantitated with a phosphoimager.
If either enzyme was inhibited (as evidenced by the absence of labelled protein in the developed gel), an IC50 was calculated by running the assay with a range of inhibitor concentrations from 1 to 500 μM. After electrophoresis of the reaction mixtures, percent inhibition was determined by measuring the concentration of radioactive phosphorus with a phosphoimager and calculating the values using a software program (BioRad Molecular Analyst).

Setting [1] is: Table 6, KinA/Spo0F phosphorylation, in µM.
Setting [2] is: Table 5, KinA/Spo0F phosphorylation, in µM.
The mark [3] stands for this setting: Table 1, KinA/Spo0F phosphorylation, in µM.
[4] abbreviates: Table 4, KinA/Spo0F phosphorylation, read-out: IC50.
Setting [5] is: Table 3, KinA/Spo0F phosphorylation, read-out: IC50.
The mark [6] stands for this setting: Table 2, KinA/Spo0F phosphorylation, in µM.

Where two headings read alike, the source gives them in different places.

As for `CC(C)(C)c1cc(-c2nc3ccc(N)cc3[nH]2)c(O)c(C(C)(C)C)c1` [Example 90], the IC50 under setting [1] came out at 152.

Turning to `N=C(N)c1ccc2nc(-c3ccc(N4CCN(c5ccccc5)CC4)cc3)[nH]c2c1` [Example 81], under setting [2], the IC50 turned out to be 26.

In turn, `CC(C)(C)c1cc(-c2nc3ccc(C(=N)N)cc3[nH]2)cc(C(C)(C)C)c1O` [Example 9] came in with an IC50 under setting [3] of 75.9.

With `N=C(N)c1ccc2nc(-c3ccc4ccccc4c3O)[nH]c2c1` [Example 75], the IC50 under setting [4] turned out to be 127 µM.

Take `CC(C)(C)c1cccc(-c2nc3ccc(C(=N)N)cc3[nH]2)c1O` [Example 34]: the IC50 under setting [3] worked out at 4.

On to `CC(C)(C)c1csc(-c2ccc(-c3nc4ccc(C(=N)N)cc4[nH]3)cc2)n1` [Example 43], for which, under setting [3], the IC50 is 40.2.

`COc1ccc(Oc2cccc(-c3nc4cc(C(=N)N)ccc4[nH]3)c2)cc1` [Example 70]: the IC50 under setting [5] is 69.2 µM.

`N=C(N)c1ccc(Oc2ccc(-c3nc4ccc(C(=N)N)cc4[nH]3)cc2)cc1` [Example 47]: the IC50 under setting [6] is 131.

With `N=C(N)c1ccc2[nH]c(-c3cccc(Oc4ccccc4)c3)nc2c1` [Example 63], the IC50 under setting [5] was 53 µM.

Regarding `CCn1c2ccccc2c2ccc(-c3nc4ccc(C(=N)N)cc4[nH]3)cc21` [Example 73], under setting [4], the IC50 is given as 22.0 µM.

For `CC(C)(C)c1cc(-c2nc3ccc(C(=N)N)cc3[nH]2)c(O)c(C(C)(C)C)c1` [Example 30], under setting [3], the IC50 came out at 8.5.

`N=C(N)c1ccc2nc(-c3ccc(-c4ccccc4)cc3)[nH]c2c1` [Example 2]: the IC50 under setting [3] was found to be 86.

Molecule `N=C(N)c1ccc2nc(-c3ccc(OCc4ccc([N+](=O)[O-])cc4)cc3)[nH]c2c1` [Example 11] returned an IC50 under setting [3] of 19.4.

`CC(C)(C)c1ccc(Oc2ccc(-c3nc4ccc(C(=N)N)cc4[nH]3)cc2)cc1` [Example 56] gave an IC50 under setting [6] of 66.5.

As to `N=C(N)c1cc(N)c2[nH]c(-c3ccc(Oc4ccccc4)cc3)nc2c1` [Example 62], the IC50 under setting [6] was found to be 19.

Molecule `N=C(N)c1ccc2nc(-c3cc([N+](=O)[O-])cc(Br)c3O)[nH]c2c1` [Example 40] gave an IC50 under setting [3] of 199.

In the case of `N=C(N)c1ccc2[nH]c(-c3cccc(Oc4ccc(Cl)cc4)c3)nc2c1` [Example 69], the IC50 under setting [5] was 28 µM.

For the molecule `N=C(N)c1ccc2[nH]c(-c3cccc(Oc4cc(Cl)cc(Cl)c4)c3)nc2c1` [Example 66], the IC50 under setting [5] is given as 32 µM.

For the molecule `N=C(N)c1ccc2nc(-c3ccc(N(c4ccccc4)c4ccccc4)cc3)[nH]c2c1` [Example 5], under setting [3], the IC50 is on record as 17.4.

In the case of `N=C(N)c1ccc2nc(-c3cc(I)cc(I)c3O)[nH]c2c1` [Example 31], under setting [3], the IC50 amounted to 30.8.

On to `N=C(N)c1ccc2nc(-c3ccc4oc5ccccc5c4c3)[nH]c2c1` [Example 71], for which the IC50 under setting [4] was found to be 17.3 µM.

In turn, `N=C(N)c1ccc2nc(-c3ccc(OCc4ccccc4)c(OCc4ccccc4)c3)[nH]c2c1` [Example 16] came in with an IC50 under setting [3] of 50.7.

Under setting [3], `N=C(N)c1ccc2nc(-c3ccc(N(Cc4ccccc4)Cc4ccccc4)cc3)[nH]c2c1` [Example 26] returned an IC50 of 17.

Take `Cn1c(-c2ccc(Oc3ccccc3)cc2)nc2ccc(C(=N)N)cc21` [Example 46]: the IC50 under setting [6] stood at 44.

On to `CC(C)(C)c1cc(-c2nc3ccc(C(=N)N)cc3[nH]2)cc(C(C)(C)C)c1` [Example 20], for which, under setting [3], the IC50 worked out at 19.

For the molecule `N=C(N)c1ccc2[nH]c(-c3cccc(Oc4cccc(C(F)(F)F)c4)c3)nc2c1` [Example 64], the IC50 under setting [5] amounted to 48 µM.

`CCCCCCCCCCOc1ccc(-c2nc3ccc(C(=N)N)cc3[nH]2)cc1OCCCCCCCCCC` [Example 12]: under setting [3], the IC50 turned out to be 8.3.

In turn, `c1ccc(Oc2ccc(-c3nc4ccc(-c5nc6ccccc6[nH]5)cc4[nH]3)cc2)cc1` [Example 84] yielded an IC50 under setting [1] of 32.3.

The molecule `CC(C)(C)c1cc(-c2nc3ccc(C4=NCCCCN4)cc3[nH]2)c(O)c(C(C)(C)C)c1` [Example 87] yielded an IC50 under setting [1] of 29.

As to `N=C(N)Cn1c(-c2ccc(N(c3ccccc3)c3ccccc3)cc2)nc2ccc(C(=N)N)cc21` [Example 82], under setting [2], the IC50 amounted to 22.

`N=C(N)c1ccc2nc(-c3ccc(F)cc3)[nH]c2c1` [Example 17]: the IC50 under setting [3] came out at 480.

`Cc1ccc(Oc2cccc(-c3nc4cc(C(=N)N)ccc4[nH]3)c2)cc1` [Example 65]: the IC50 under setting [5] came out at 33 µM.

On to `CC(C)c1ccc(-c2nc3ccc(C(=N)N)cc3[nH]2)cc1` [Example 4], for which the IC50 (Table 1, KinA/Spo0F phosphorylation, read-out: IC50) stood at 219 µM.

The molecule `CC(C)(C)c1cc(-c2nc3ccc(C(=N)N)cc3[nH]2)ccc1O` [Example 23] gave an IC50 under setting [3] of 22.

With `COc1ccc(Oc2ccc(-c3nc4ccc(C(=N)N)cc4[nH]3)cc2)cc1` [Example 54], under setting [6], the IC50 was 17.7.

Under setting [3], `COc1cc(Br)c(O)c(-c2nc3ccc(C(=N)N)cc3[nH]2)c1` [Example 37] displayed an IC50 of 171.

On to `CC(C)(C)c1cc(-c2nc3ccc(C4=NCCCN4)cc3[nH]2)c(O)c(C(C)(C)C)c1` [Example 86], for which the IC50 under setting [1] is given as 32.

As for `N=C(N)c1ccc2[nH]c(-c3ccc(Oc4ccc(N)c(N)c4)cc3)nc2c1` [Example 58], the IC50 under setting [6] was 31.5.

Consider `N=C(N)c1ccc2[nH]c(-c3cccc(Oc4ccc(Cl)c(Cl)c4)c3)nc2c1` [Example 67], for which the IC50 under setting [5] was 32 µM.

Take `N=C(N)c1ccc(Oc2ccc(-c3nc4ccccc4[nH]3)cc2)cc1` [Example 79]: under setting [2], the IC50 was found to be 241.

For `N=C(N)c1ccc2nc(-c3cc(Cl)cc(Cl)c3)[nH]c2c1` [Example 19], the IC50 under setting [3] was 100.

Regarding `N=C(N)c1ccc2nc(-c3cc([N+](=O)[O-])cc([N+](=O)[O-])c3O)[nH]c2c1` [Example 33], the IC50 under setting [3] is reported as 74.7.

`N=C(N)c1ccc2nc(-c3cc(Cl)cc(Cl)c3O)[nH]c2c1` [Example 36]: under setting [3], the IC50 came to 155.

In the case of `CCCCN(CCCC)c1ccc(-c2nc3ccc(C(=N)N)cc3[nH]2)cc1` [Example 14], the IC50 under setting [3] is listed as 35.5.

Molecule `CC1(C)CN=C(c2ccc3nc(-c4cc(C(C)(C)C)cc(C(C)(C)C)c4O)[nH]c3c2)N1` [Example 88] gave an IC50 under setting [1] of 12.

For the molecule `N=C(N)c1ccc2nc(-c3ccc4ccccc4c3)[nH]c2c1` [Example 74], the IC50 under setting [4] is recorded as 120 µM.

The molecule `N=C(N)c1ccc2nc(-c3cc(C(F)(F)F)cc(C(F)(F)F)c3)[nH]c2c1` [Example 7] yielded an IC50 under setting [3] of 30.8.

Under setting [6], `N=C(N)c1ccc2[nH]c(-c3ccc(Oc4ccc(Cl)c(Cl)c4)cc3)nc2c1` [Example 60] yielded an IC50 of 11.4.
